The source of these data is PMC5587909, “Inhibition of the ATP Synthase Eliminates the Intrinsic Resistance of Staphylococcus aureus towards Polymyxins” (mBio, 2017).

≈ marks a conversion by molar mass, not a printed value. Bridge positions count the residues as written; N and C are the ends. Square brackets hold non-standard residues; d marks the D form. Peptide text beside a SMILES is read from it. * marks the point of attachment. Ileψ(thiazoline)Cys = CC[C@H](C)[C@H](N)C1=N[C@H](C(=O)*)CS1; dOrn = NCCC[C@@H](N)C(=O)O; X1 = CC[C@H](C)CCCCC(=O)*; Dab = NCC[C@H](N)C(=O)O

The subject of assay [1] is S. aureus JE2 vraF mutant. The format is cell-based, Staphylococcus aureus. Conditions: 2-fold broth microdilution in TSB (100 µl), inoculum approx. 5 × 10^5 cells/ml, 37°C, 22 h; vraF mutant. The text has this: (§1) The strains used in this study include S. aureus strain JE2 (plasmid-cured derivative of USA300 LAC) and all derivative strains within the Nebraska Transposon Mutant Library (NTML), consisting of 1,920 unique transposon mutants with inactivation of nonessential genes ([15]). The bursa aurealis transposon used to create the collection contains the resistance cassette ermB, which confers resistance to erythromycin ([15]). Additionally we used S. aureus SA113 and two derivatives, SA113 ΔdltA ([9]) and SA113 ΔmprF ([10]). All bacterial strains were cultured at 37°C in tryptic soy broth (TSB) or on tryptic soy agar (TSA), with antimicrobial agents added as indicated. Two methods have been employed to determine MICs to various antimicrobial agents. (i) A 2-fold broth microdilution assay in TSB (100 µl) with an initial inoculum of approximately 5 × 10^5 cells/ml was employed to determine the MICs of polymyxin B sulfate (Sigma), gallidermin (Santa Cruz Biotechnology), nisin (Sigma), bacitracin (Sigma), and LL-37 (Isca Biochemicals). (ii) An Etest (BioMérieux) performed on TSA plates was employed to determine MICs for polymyxin B, colistin, ciprofloxacin, oxacillin, linezolid, gentamicin, vancomycin, and daptomycin. The MIC was determined upon incubation at 37°C for 22 h. When indicated, the Etest (BioMérieux) was performed on Mueller-Hinton agar plates (cation adjusted for calcium and magnesium).
(In broth dilution the organism is exposed to a series of concentrations in liquid medium.)

Assay [2] relates to S. aureus JE2 vraG mutant. The format is cell-based, Staphylococcus aureus. Conditions: 2-fold broth microdilution in TSB (100 µl), inoculum approx. 5 × 10^5 cells/ml, 37°C, 22 h.
Source text: as §1

The subject of assay [3] is S. aureus JE2 graR mutant. The format is cell-based, Staphylococcus aureus. Conditions: 2-fold broth microdilution in TSB (100 µl), inoculum approx. 5 × 10^5 cells/ml, 37°C, 22 h; graR mutant.
Source text: as §1

The subject of assay [4] is S. aureus JE2 (WT). The format is cell-based, Staphylococcus aureus. As to conditions: 2-fold broth microdilution in TSB (100 µl), inoculum approx. 5 × 10^5 cells/ml, 37°C, 22 h.
Source text: as §1

Assay [5] deals with S. aureus JE2 atpA mutant. The format is cell-based, Staphylococcus aureus. As to conditions: 2-fold broth microdilution in TSB (100 µl), inoculum approx. 5 × 10^5 cells/ml, 37°C, 22 h.
Source text: as §1

Assay [6] deals with S. aureus JE2 lspA transposon mutant (SAUSA300_1089). The format is cell-based, Staphylococcus aureus. As to conditions: Etest on TSA, 37°C, 22 h.
Source text: (§2) Staphylococcus aureus is intrinsically resistant to the clinically approved cationic antimicrobial peptides polymyxin B (PMB) and colistin ([1], [16]). […] The MIC for PMB was subsequently determined using Etests for the identified mutants. Nineteen mutants were confirmed to be at least 2-fold more susceptible than the WT (Table 1). As expected, we identified transposon insertions in graS, graR, vraF, and vraG, corroborating previous work on these determinants in S. aureus in relation to increased PMB susceptibility ([12]).
as §1

Assay [7] relates to S. aureus JE2 transposon mutant SAUSA300_1254 (hypothetical protein). The format is cell-based, Staphylococcus aureus. Conditions: Etest on TSA, 37°C, 22 h.
Source text: as §2, §1

The test system of assay [8] is S. aureus JE2 transposon mutant SAUSA300_1785 (putative ABC transporter protein EcsB). The format is cell-based, Staphylococcus aureus. Conditions: Etest on TSA, 37°C, 22 h.
Source text: as §2, §1

Assay [9] relates to S. aureus JE2 transposon mutant SAUSA300_0918 (diacylglycerol glucosyltransferase). The format is cell-based, Staphylococcus aureus. As to conditions: Etest on TSA, 37°C, 22 h.
Source text: as §2, §1

Assay [10] deals with S. aureus JE2 atpG transposon mutant (SAUSA300_2059). The format is cell-based, Staphylococcus aureus. As to conditions: Etest on TSA, 37°C, 22 h; atpG mutant.
Source text: as §2, §1

For assay [11], the system named is S. aureus JE2 trkA transposon mutant (SAUSA300_0988). The format is cell-based, Staphylococcus aureus. As to conditions: Etest on TSA, 37°C, 22 h.
Source text: as §2, §1

Assay [12] concerns S. aureus JE2 vraS transposon mutant (SAUSA300_1866). The format is cell-based, Staphylococcus aureus. Conditions: Etest on TSA, 37°C, 22 h.
Source text: as §2, §1

For assay [13], the system named is S. aureus JE2 atpB transposon mutant (SAUSA300_2064). The format is cell-based, Staphylococcus aureus. Conditions: Etest on TSA, 37°C, 22 h; atpB mutant.
Source text: as §2, §1

Assay [14] relates to S. aureus JE2 yajC transposon mutant (SAUSA300_1594). The format is cell-based, Staphylococcus aureus. Conditions: Etest on TSA, 37°C, 22 h.
Source text: as §2, §1

In assay [15] the test system is S. aureus JE2 graS transposon mutant (SAUSA300_0646). The format is cell-based, Staphylococcus aureus. As to conditions: Etest on TSA, 37°C, 22 h; graS mutant.
Source text: as §2, §1

Assay [16] deals with S. aureus JE2 transposon mutant SAUSA300_1495 (hypothetical protein). The format is cell-based, Staphylococcus aureus. As to conditions: Etest on TSA, 37°C, 22 h.
Source text: as §2, §1

In assay [17] the test system is S. aureus JE2 cbiO transposon mutant (SAUSA300_2176). The format is cell-based, Staphylococcus aureus. As to conditions: Etest on TSA, 37°C, 22 h.
Source text: as §2, §1

Assay [18] relates to S. aureus JE2 transposon mutant SAUSA300_0980 (hypothetical protein). The format is cell-based, Staphylococcus aureus. Conditions: Etest on TSA, 37°C, 22 h.
Source text: as §2, §1

Assay [19] concerns S. aureus JE2 transposon mutant SAUSA300_1802 (hypothetical protein). The format is cell-based, Staphylococcus aureus. Conditions: Etest on TSA, 37°C, 22 h.
Source text: as §2, §1

In assay [20] the test system is S. aureus JE2 atpH transposon mutant (SAUSA300_2061). The format is cell-based, Staphylococcus aureus. Conditions: Etest on TSA, 37°C, 22 h; atpH mutant.
Source text: as §2, §1

For assay [21], the system named is S. aureus JE2 vraG transposon mutant (SAUSA300_0648). As to the kind of experiment: microbe, parasite or virus in culture. As to conditions: Etest on TSA, 37°C, 22 h, vraG mutant.
Source text: (§3) Staphylococcus aureus is intrinsically resistant to the clinically approved cationic antimicrobial peptides polymyxin B (PMB) and colistin ([1], [16]). […] The MIC for PMB was subsequently determined using Etests for the identified mutants.
as §1, with “(ii) An Etest (BioMérieux) performed on TSA plates was employed to determine MICs for polymyxin B, colistin, ciprofloxacin, oxacillin, linezolid, gentamicin, vancomycin, and daptomycin.” left out, “When indicated, the Etest (BioMérieux) was performed on Mueller-Hinton agar plates (cation adjusted for calcium and magnesium).” left out

Assay [22] relates to S. aureus JE2 graR transposon mutant (SAUSA300_0645). The assay is described as follows: microbe, parasite or virus in culture. Conditions: Etest on TSA, 37°C, 22 h, graR mutant.
Source text: as §3
as §1, with “(ii) An Etest (BioMérieux) performed on TSA plates was employed to determine MICs for polymyxin B, colistin, ciprofloxacin, oxacillin, linezolid, gentamicin, vancomycin, and daptomycin.” left out, “When indicated, the Etest (BioMérieux) was performed on Mueller-Hinton agar plates (cation adjusted for calcium and magnesium).” left out

Assay [23] has as its system S. aureus JE2 vraF transposon mutant (SAUSA300_0647). As to the kind of experiment: microbe, parasite or virus in culture. Conditions: Etest on TSA, 37°C, 22 h, vraF mutant.
Source text: as §3
as §1, with “(ii) An Etest (BioMérieux) performed on TSA plates was employed to determine MICs for polymyxin B, colistin, ciprofloxacin, oxacillin, linezolid, gentamicin, vancomycin, and daptomycin.” left out, “When indicated, the Etest (BioMérieux) was performed on Mueller-Hinton agar plates (cation adjusted for calcium and magnesium).” left out

Assay [24] has as its system S. aureus JE2 atpA transposon mutant (SAUSA300_2060). As to the kind of experiment: microbe, parasite or virus in culture. As to conditions: Etest on TSA, 37°C, 22 h, atpA mutant.
Source text: as §3
as §1, with “(ii) An Etest (BioMérieux) performed on TSA plates was employed to determine MICs for polymyxin B, colistin, ciprofloxacin, oxacillin, linezolid, gentamicin, vancomycin, and daptomycin.” left out, “When indicated, the Etest (BioMérieux) was performed on Mueller-Hinton agar plates (cation adjusted for calcium and magnesium).” left out

Assay [25] deals with S. aureus JE2 (wild type). The assay is described as follows: microbe, parasite or virus in culture. Conditions: Etest on TSA, 37°C, 22 h.
Source text: as §3
as §1, with “(ii) An Etest (BioMérieux) performed on TSA plates was employed to determine MICs for polymyxin B, colistin, ciprofloxacin, oxacillin, linezolid, gentamicin, vancomycin, and daptomycin.” left out, “When indicated, the Etest (BioMérieux) was performed on Mueller-Hinton agar plates (cation adjusted for calcium and magnesium).” left out

Where [26] appears, read: conventional antibiotics (Table 3).

Consider `CC[C@H](C)[C@H](N)C1=N[C@H](C(=O)N[C@@H](CC(C)C)C(=O)N[C@H](CCC(=O)O)C(=O)N[C@H](C(=O)N[C@H]2CCCCNC(=O)[C@H](CC(N)=O)NC(=O)[C@@H](CC(=O)O)NC(=O)[C@H](Cc3cnc[nH]3)NC(=O)[C@@H](Cc3ccccc3)NC(=O)[C@H]([C@@H](C)CC)NC(=O)[C@@H](CCCN)NC2=O)[C@@H](C)CC)CS1` [Bacitracin, bacitracin] ({Ileψ(thiazoline)Cys}-L[dE]IK[dOrn]I[dF]H[dD]N; lactam 4-C (inferred); N-terminus assumed), for which the “MIC, vraF” value in assay [1] stood at 256 µg/mL (≈ 180 µM). Also, the “MIC, vraG” value in assay [2] was 256 µg/mL (≈ 180 µM). The “MIC, graR” value in [3] was determined as 128 µg/mL (≈ 90 µM). The “MIC, WT” value in assay [4] is 256 µg/mL (≈ 180 µM). The “MIC, atpA” value in [5] is 128 µg/mL (≈ 90 µM).

Turning to `CC[C@H](C)CCCCC(=O)N[C@@H](CCN)C(=O)N[C@H](C(=O)N[C@@H](CCN)C(=O)N[C@H]1CCNC(=O)[C@H]([C@@H](C)O)NC(=O)[C@H](CCN)NC(=O)[C@H](CCN)NC(=O)[C@H](CC(C)C)NC(=O)[C@@H](CC(C)C)NC(=O)[C@H](CCN)NC1=O)[C@@H](C)O` [Colistin, colistin] (X1-[Dab]T[Dab][Dab][Dab][dL]L[Dab][Dab]T; lactam 4-C (inferred); N-terminus assumed), the MIC was 256 µg/mL (≈ 219 µM) in [6]; 192 µg/mL (≈ 164 µM) in assay [7]; over 256 µg/mL in [8]; over 256 µg/mL in assay [9]; 48 µg/mL (≈ 41 µM) in [10]; 128 µg/mL (≈ 109 µM) in assay [11]. The MIC in [12] is 256 µg/mL (≈ 219 µM); in [13] it was 48 µg/mL (≈ 41 µM); in assay [14], 256 µg/mL (≈ 219 µM); in assay [15], 32 µg/mL (≈ 27.4 µM); in [16] it was over 256 µg/mL; in assay [17] it was 64 µg/mL (≈ 54.7 µM). Further, the MIC in assay [18] is over 256 µg/mL; in assay [19] it was over 256 µg/mL; in assay [20], 48 µg/mL (≈ 41 µM); in [21] it was 24 µg/mL (≈ 20.5 µM); in assay [22], 32 µg/mL (≈ 27.4 µM); in assay [23] it was 32 µg/mL (≈ 27.4 µM). Besides, the MIC in assay [24] was 48 µg/mL (≈ 41 µM); in [25] (wild type S. aureus JE2), over 256 µg/mL.

As to `CCCCCCCCCC(=O)N[C@@H](Cc1c[nH]c2ccccc12)C(=O)N[C@H](CC(N)=O)C(=O)N[C@@H](CC(=O)O)C(=O)N[C@@H]1C(=O)NCC(=O)N[C@@H](CCCN)C(=O)N[C@@H](CC(=O)O)C(=O)N[C@H](C)C(=O)N[C@@H](CC(=O)O)C(=O)NCC(=O)N[C@H](CO)C(=O)N[C@@H]([C@H](C)CC(=O)O)C(=O)N[C@@H](CC(=O)c2ccccc2N)C(=O)O[C@@H]1C` [Daptomycin, daptomycin], in assay [21] (setting [26]), the “MIC, vraG” value amounted to 0.25 µg/mL (≈ 0.154 µM). The “MIC, graR” value in assay [22] (setting [26]) is 0.19 µg/mL (≈ 0.117 µM). Besides, the “MIC, vraF” value in assay [23] (setting [26]) is 0.25 µg/mL (≈ 0.154 µM). Moreover, the “MIC, atpA” value in [24] (setting [26]) is 0.250 µg/mL (≈ 0.154 µM). Besides, the “MIC, WT” value in [25] (conventional antibiotics (Table 3), WT JE2) came out at 0.25 µg/mL (≈ 0.154 µM).
